{
  "source": "patent US5256824A",
  "about": "“Substituted-amine compound and a process for the preparation thereof” (Fujisawa Pharmaceutical Co., Ltd., priority 1990, dated 1993)",
  "key": {"[1]": {"system": "Na channel", "experiment": "Na channel blocking activity (local anesthetic effect on the corneal blink reflex)", "format": "in vivo, Male Japanese white rabbits", "details": "1.0% solution in saline, 50 μl drops to one eye", "protocol": "Test on Na channel blocking activity\nMale Japanese white rabbits weighing 2.0-3.0 kg were to evaluate the local anesthetic effect of test compound on the corneal blink reflex. Corneal reflexes were elicited by pressing a flexible monofilament (rabbit whisker) against the cornea. 1.0% Test compound solution in saline was applied to one eye (50 μl drops) and the contralateral eye received as a control. Corneal blink responses were scored at 5, and 15 minutes after test compound application.\nLocal anesthetic activities were expressed as an inhibition percent of blink responses."}, "[2]": {"system": "Urinary Bladder Contractions Induced by Water Filling", "experiment": "Inhibition of Urinary Bladder Contractions Induced by Water Filling in Rats", "format": "in vivo, Male Sprague-Dawly rats", "details": "Rattus norvegicus; intravenous, anesthetized rats (urethane), hyperactive bladder by water filling", "text": "Test on Inhibition of Urinary Bladder Contractions Induced by Water Filling in Rats\nMale Sprague-Dawly rats, weighing 240-450 g, were anesthetized with urethane 1.0 g/kg s.c. The bladder was exposed through a midline incision in the abdomen for the recording of pressure within the bladder as follows; a balloon attached to one end of a stainless steel tube (O.D., 1.2 mm, 5 cm in length) was inserted into the bladder through a small incision in the bladder dome. The other end of the tube was connected to a pressure-transducer. The ureters were ligated and cut, and the proximal cut end was cannulated with polyethylene tubing and the urine was led outside.\nHyperactive urinary bladder (hyperactive contractions of the detrusor muscle) was induced by water filling of the bladder. Therefore, the balloon in the bladder was filled with water of a volume which caused a resting pressure of about 10 mmHg. Systemic blood pressure and heart rate were monitored from the common carotid artery.\nWhen the contractile responses to water filling became constant, test compounds were administered intravenously."}},
  "data": [
    {"compound": "CC(C)(C)NC1C=CC(c2ccccc2)(c2ccccc2)C1.Cl", "note": "(single isomer, unassigned; (-)) [(-)-N-t-butyl-4,4-diphenyl-2-cyclopentenylamine hydrochloride]", "values": [
      {"measurement": "Inhibition % of blink responses", "setting": "[1]; 5 minutes after application", "value": 100, "unit": "%"},
      {"measurement": "Inhibition % of blink responses", "setting": "[1]; 15 minutes after application", "value": 100, "unit": "%"}
    ]},
    {"compound": "CC(C)(C)NC1C=CC(c2ccccc2)(c2ccccc2)C1.CS(=O)(=O)O", "note": "(single isomer, unassigned; (-)) [(-)-N-t-butyl-4,4-diphenyl-2-cyclopentenylamine methanesulfonate]", "values": [
      {"measurement": "ED30", "setting": "[2]", "value": 0.18, "unit": "mg/kg"}
    ]}
  ]
}
